Source: PubChem BioAssay AID588588 (Sanford-Burnham Center for Chemical Genomics, 2011)
Active and inactive are the calls of the source. How the calls were made is not given here.

Target: glucose-6-phosphate dehydrogenase-6-phosphogluconolactonase (Plasmodium falciparum 3D7)
Assay: inhibition of P. falciparum G6PD activity – biochemical, end-point NADPH detection, orthogonal assay, SAR follow-up (AID 588588)
Settings: recombinant PfG6PD-6PGL, direct NADPH end-point detection

| SMILES | IC50 |
| --- | --- |
| CN(C)CCNC(=O)c1ccc2c(c1)NC(=O)c1ccccc1O2 | > 80 µM (inactive) |
| O=C(Nc1nnc(S(=O)(=O)N2CCCCCC2)s1)c1ccc(F)cc1 | > 80 µM (inactive) |
| O=C(Nc1nnc(S(=O)(=O)N2CCCCCC2)s1)c1ccco1 | > 80 µM (inactive) |
| CCN1CCC[C@@H]1CNC(=O)c1ccc2c(c1)NC(=O)/C(=C/c1ccccc1F)S2 | > 80 µM (inactive) |
| CCN(CC)CCNC(=O)c1ccc2c(c1)N(Cc1ccccc1Cl)C(=O)c1ccccc1S2 | > 80 µM (inactive) |
| O=C1COc2ccc(C(=O)NCCN3CCOCC3)cc2N1 | > 80 µM (inactive) |
| O=C(Nc1nnc(S(=O)(=O)N2CCOCC2)s1)c1cccc(F)c1 | > 80 µM (inactive) |
| CC1Cc2ccccc2N1S(=O)(=O)c1nnc(NC(=O)c2cccc(Br)c2)s1 (stereo not drawn) | > 80 µM (inactive) |
| Cc1cccc(C(=O)Nc2nnc(S(=O)(=O)N3CCCCCC3)s2)c1 | > 80 µM (inactive) |
| CCN(CC)CCNC(=O)c1ccc2c(c1)NC(=O)/C(=C\c1ccccc1F)S2 | > 80 µM (inactive) |
| O=C1Nc2cc(C(=O)NCCN3CCCCC3)ccc2S/C1=C\c1ccccc1F | > 80 µM (inactive) |
| O=C(Nc1nnc(S(=O)(=O)N2CCCCCC2)s1)c1cccc(Cl)c1 | > 80 µM (inactive) |
| CN1CCN(C(=O)c2ccc3c(c2)NC(=O)/C(=C/c2ccccc2Cl)S3)CC1 | > 80 µM (inactive) |
| COc1ccccc1C(=O)Nc1nnc(S(=O)(=O)N2CCCCCC2)s1 | > 80 µM (inactive) |
| CC1Cc2ccccc2N1S(=O)(=O)c1nnc(NC(=O)c2cccc(F)c2)s1 (stereo not drawn) | > 80 µM (inactive) |
| CCN(CC)CCNC(=O)c1ccc2c(c1)NC(=O)/C(=C\c1ccc(OC)c(OC)c1)S2 | > 80 µM (inactive) |
| CN1CCCC1CCNC(=O)c1ccc2c(c1)NC(=O)/C(=C/c1ccccc1F)S2 (stereo not drawn) | > 80 µM (inactive) |

More lines, now with the values ahead:

| IC50 | SMILES |
| --- | --- |
| > 80 µM (inactive) | CN(C)CCNC(=O)c1ccc2c(c1)NC(=O)/C(=C\c1cccc(Cl)c1)S2 |
| > 80 µM (inactive) | CCN1CCC[C@H]1CNC(=O)c1ccc2c(c1)NC(=O)/C(=C/c1ccccc1F)S2 |
| > 80 µM (inactive) | COc1ccc(/C=C2/Sc3ccc(C(=O)NCCN(C)C)cc3NC2=O)cc1 |
| > 80 µM (inactive) | CCN(CC)CCNC(=O)c1ccc2c(c1)N(Cc1ccc(C)cc1)C(=O)c1ccccc1S2 |
| > 80 µM (inactive) | Cc1ccc(CN2C(=O)c3ccccc3Sc3ccc(C(=O)NCCN(C)C)cc32)cc1 |
| 50.3 µM | O=C(NCCN1CCCCC1)c1ccc2c(c1)NC(=O)c1ccccc1O2 |
| > 80 µM (inactive) | O=C(Nc1nnc(S(=O)(=O)N2CCCCCC2)s1)c1cccc(Br)c1 |
| > 80 µM (inactive) | Cc1ccccc1C(=O)Nc1nnc(S(=O)(=O)N2CCCCCC2)s1 |
| > 80 µM (inactive) | Cc1ccc(C(=O)Nc2nnc(S(=O)(=O)N3c4ccccc4CC3C)s2)cc1 (stereo not drawn) |
| > 80 µM (inactive) | O=C(Nc1nnc(S(=O)(=O)N2CCCCCC2)s1)c1ccccc1F |
| > 80 µM (inactive) | CCCN(CCC)CCNC(=O)c1ccc2c(c1)NC(=O)/C(=C\c1ccc(C)cc1)S2 |
